Usually pIC50 stands for −log10 of the IC50, conventionally taken in molar units.

pIC50: −log10 of the molar value. Some results are limits rather than exact numbers.

This test relates to PC3 cells. As to the kind of experiment: NAMPT Cell Proliferation Assay. The class given is cell-based. As to conditions: Homo sapiens, PC-3, 120 h, 5 days incubation, cell viability by Cell Titer Glo. In short, it runs like this:
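Five-day CellTiter-Glo viability readout in PC3 cells grown in RPMI/10% heat-inactivated FBS. Compounds added after overnight attachment as a 10-fold dilution series, […]. Percent inhibition fitted to sigmoidal dose-response to derive IC50.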
(Cellular ATP, detected with luciferase, serves as a proxy for viable cell number.)
In the case of `Cc1ccc(C(=O)N2CCC(c3ccc(NC(=O)C4CN(c5cccnn5)C4)cc3)CC2)cc1C` [Example 360, N-{4-[1-(3,4-dimethylbenzoyl)piperidin-4-yl]phenyl}-1-(pyridazin-3-yl)azetidine-3-carboxamide], the pIC50 was 8.63.

`CC(=O)N[C@@H](CC(C)C)C(=O)N1CCC(c2ccc(NC(=O)C3CN(c4cccnn4)C3)cc2)CC1` [Example 385, N-{4-[1-(N-acetyl-L-leucyl)piperidin-4-yl]phenyl}-1-(pyridazin-3-yl)azetidine-3-carboxamide] gave a negative logarithm of the IC50 (pIC50) of 7.63.

Turning to `Cc1ccc(N2CC[C@H](C(=O)Nc3ccc(OC4CCN(C(=O)C5CCCCC5)CC4)cc3)C2)nn1` [Example 839, (3S)—N-(4-{[1-(cyclohexylcarbonyl)piperidin-4-yl]oxy}-phenyl)-1-(6-methylpyridazin-3-yl)pyrrolidine-3-carboxamide], the negative-log IC50 (pIC50) is 5.70.

In turn, `O=C(Nc1ccc(C2CCN(C(=O)C3CCCCC3)CC2)cc1)[C@H]1CCN(c2cccnn2)C1` [Example 730, (3S)-N-{4-[1-(cyclohexylcarbonyl)piperidin-4-yl]phenyl}-1-(pyridazin-3-yl)pyrrolidine-3-carboxamide] showed a negative-log IC50 (pIC50) of 8.17.

Take `O=C(Nc1ccc(O[C@@H]2CCN(C(=O)c3ccccc3F)C2)cc1)[C@H]1CCN(c2cccnn2)C1` [Example 775, (3S)-N-(4-{[(3R)-1-(2-fluorobenzoyl)pyrrolidin-3-yl]oxy}phenyl)-1-(pyridazin-3-yl)pyrrolidine-3-carboxamide]: the pIC50 was 8.67.

With `CCCCCC(=O)N1CCC(c2ccc(NC(=O)[C@H]3CCN(c4cccnn4)C3)cc2)CC1` [Example 678, (3S)-N-[4-(1-hexanoylpiperidin-4-yl)phenyl]-1-(pyridazin-3-yl)pyrrolidine-3-carboxamide], the pIC50 is 8.22.

Compound `CC(C)CC(=O)N1CCC(S(=O)(=O)c2ccc(NC(=O)C3CN(c4cccnn4)C3)cc2)CC1` [Example 597, N-(4-{[1-(3-methylbutanoyl)piperidin-4-yl]sulfonyl}phenyl)-1-(pyridazin-3-yl)azetidine-3-carboxamide] showed a negative logarithm of the IC50 (pIC50) of 6.93. This pIC50 is 1.29 log units lower than that of the compound before.

As to `O=C(N[C@H]1CCN(c2cccnn2)C1)c1ccc(C2CCN(C(=O)c3cscn3)CC2)s1` [Example 768, N-[(3S)-1-(pyridazin-3-yl)pyrrolidin-3-yl]-5-[1-(1,3-thiazol-4-ylcarbonyl)piperidin-4-yl]thiophene-2-carboxamide], the pIC50 is 6.95. The pIC50 values of the last two compounds are within 0.2 log units of each other.

In the case of `O=C(Nc1ccc(OC2CCN(C(=O)C3CCOC3)CC2)cc1)[C@H]1CCN(c2cccnc2)C1` (stereo partly drawn) [Example 15, (3S)-1-(pyridin-3-yl)-N-(4-{[1-(tetrahydrofuran-3-ylcarbonyl)piperidin-4-yl]oxy}phenyl)pyrrolidine-3-carboxamide], the negative-log IC50 (pIC50) was 7.46.

`COc1ccc(C(=O)N2CCC(c3ccc(NC(=O)C4CN(c5cccnn5)C4)cc3)CC2)cc1` [Example 347, N-{4-[1-(4-methoxybenzoyl)piperidin-4-yl]phenyl}-1-(pyridazin-3-yl)azetidine-3-carboxamide] had a pIC50 of 8.09.

`Cn1cccc1C(=O)N1CCC(Oc2ccc(NC(=O)C3CN(c4cccnc4)C3)cc2)CC1` [Example 64, N-[4-({1-[(1-methyl-1H-pyrrol-2-yl)carbonyl]piperidin-4-yl}oxy)phenyl]-1-(pyridin-3-yl)azetidine-3-carboxamide] showed a negative-log IC50 (pIC50) of 8.20.

In turn, `O=C(Nc1ccc(OC2CCN(C(=O)Cc3cc(F)cc(F)c3)CC2)cc1)C1CN(c2cccnn2)C1` [Example 239, N-[4-({1-[(3,5-difluorophenyl)acetyl]piperidin-4-yl}oxy)phenyl]-1-(pyridazin-3-yl)azetidine-3-carboxamide] gave a pIC50 of 8.17.

`CSCC(=O)N1CCC(c2ccc(NC(=O)C3CN(c4cccnn4)C3)cc2)CC1` [Example 334, N-(4-{1-[(methylsulfanyl)acetyl]piperidin-4-yl}phenyl)-1-(pyridazin-3-yl)azetidine-3-carboxamide] had a negative-log IC50 (pIC50) of 9.01.

The compound `O=C(Nc1ccc(C2CCN(C(=O)Cc3ccccc3Cl)CC2)cc1)C1CN(c2cccnn2)C1` [Example 369, N-(4-{1-[(2-chlorophenyl)acetyl]piperidin-4-yl}phenyl)-1-(pyridazin-3-yl)azetidine-3-carboxamide] showed a negative logarithm of the IC50 (pIC50) of 8.67. This pIC50 lies 0.34 log units lower than the previous one.

For the compound `Cc1ccncc1N1CC(C(=O)Nc2ccc(C3CCN(C(=O)C(C)(C)O)CC3)cc2)C1` [Example 72, N-{4-[1-(2-hydroxy-2-methylpropanoyl)piperidin-4-yl]phenyl}-1-(4-methylpyridin-3-yl)azetidine-3-carboxamide], the negative-log IC50 (pIC50) was 8.24.

As for `CC(C)CC(=O)N1CC[C@@H](Oc2ccc(NC(=O)C3CN(c4ccnnc4)C3)cc2)C1` [Example 478, N-(4-{[(3R)-1-(3-methylbutanoyl)pyrrolidin-3-yl]oxy}phenyl)-1-(pyridazin-4-yl)azetidine-3-carboxamide], the negative-log IC50 (pIC50) was 7.84.

The compound `O=C(Nc1ccc(O[C@@H]2CCN(C(=O)C3CCCO3)C2)cc1)C1CN(c2ccnnc2)C1` (stereo partly drawn) [Example 457, 1-(pyridazin-4-yl)-N-(4-{[(3R)-1-(tetrahydrofuran-2-ylcarbonyl)pyrrolidin-3-yl]oxy}phenyl)azetidine-3-carboxamide] gave a negative-log IC50 (pIC50) of 6.85. This pIC50 lies 0.99 log units lower than the previous one.

For `O=C(Nc1ccc(OC2CCN(C(=O)Cc3ccc(F)cc3)CC2)cc1)C1CN(c2ccnnc2)C1` [Example 276, N-[4-({1-[(4-fluorophenyl)acetyl]piperidin-4-yl}oxy)phenyl]-1-(pyridazin-4-yl)azetidine-3-carboxamide], the pIC50 is 6.89.

On to `O=C(Nc1ccc(O[C@@H]2CCN(C(=O)c3ccccn3)C2)cc1)C1CN(c2ccnnc2)C1` [Example 463, 1-(pyridazin-4-yl)-N-(4-{[(3R)-1-(pyridin-2-ylcarbonyl)pyrrolidin-3-yl]oxy}phenyl)azetidine-3-carboxamide], for which the pIC50 is 7.15.

The compound `O=C(Nc1ccc(OC2CCN(C(=O)CCC(F)(F)F)CC2)cc1)C1CN(c2cccnc2)C1` [Example 51, 1-(pyridin-3-yl)-N-(4-{[1-(4,4,4-trifluorobutanoyl)piperidin-4-yl]oxy}phenyl)azetidine-3-carboxamide] gave a pIC50 of 8.44.

The compound `Cc1c(F)cccc1C(=O)N1CCC(c2ccc(NC(=O)[C@H]3CCN(c4cccnn4)C3)cc2)CC1` [Example 685, (3S)-N-{4-[1-(3-fluoro-2-methylbenzoyl)piperidin-4-yl]phenyl}-1-(pyridazin-3-yl)pyrrolidine-3-carboxamide] showed a negative-log IC50 (pIC50) of 8.08. Compared with the last compound, the pIC50 is 0.36 log units lower.

For `CC(C)CC(=O)N1CCC(c2ccc(NC(=O)C3CN(c4ccnnc4)C3)cc2)CC1` [Example 556, N-{4-[1-(3-methylbutanoyl)piperidin-4-yl]phenyl}-1-(pyridazin-4-yl)azetidine-3-carboxamide], the negative-log IC50 (pIC50) is 8.22. The pIC50 values of the last two compounds are within 0.2 log units of each other.

Take `O=C(Nc1ccc(S(=O)(=O)C2CCN(C(=O)c3ccc(F)cc3)CC2)cc1)C1CN(c2ccnnc2)C1` [Example 616, N-(4-{[1-(4-fluorobenzoyl)piperidin-4-yl]sulfonyl}phenyl)-1-(pyridazin-4-yl)azetidine-3-carboxamide]: the pIC50 was 5.14. Against the preceding compound, the pIC50 is 3.08 log units lower.

The compound `O=C(Nc1ccc(C2CCN(C(=O)c3ccc(Cl)c(Cl)c3)CC2)cc1)C1CN(c2cccnn2)C1` [Example 364, N-{4-[1-(3,4-dichlorobenzoyl)piperidin-4-yl]phenyl}-1-(pyridazin-3-yl)azetidine-3-carboxamide] gave a negative logarithm of the IC50 (pIC50) of 8.06. Against the preceding compound, the pIC50 is 2.92 log units higher.

For the compound `O=C(Nc1ccc(C2CCN(C(=O)C3CCCC3)CC2)cc1)C1CN(c2cccnc2)C1` [Example 138, N-{4-[1-(cyclopentylcarbonyl)piperidin-4-yl]phenyl}-1-(pyridin-3-yl)azetidine-3-carboxamide], the pIC50 was 9.64.

Take `CCCC(=O)N1CCC(Oc2ccc(NC(=O)C3CN(c4cccnc4)C3)cc2)CC1` [Example 43, N-{4-[(1-butanoylpiperidin-4-yl)oxy]phenyl}-1-(pyridin-3-yl)azetidine-3-carboxamide]: the negative logarithm of the IC50 (pIC50) was 8.16.

`CC1(C(=O)N2CCC(c3ccc(C(=O)NC4CN(c5cccnn5)C4)s3)CC2)CC1` [Example 848, 5-{1-[(1-methylcyclopropyl)carbonyl]piperidin-4-yl}-N-[1-(pyridazin-3-yl)azetidin-3-yl]thiophene-2-carboxamide] had a negative-log IC50 (pIC50) of 6.22.

Consider `O=C(Nc1ccc(C2CCN(C(=O)c3ccccc3)CC2)cc1F)C1CN(c2cccnn2)C1` [Example 829, N-[4-(1-benzoylpiperidin-4-yl)-2-fluorophenyl]-1-(pyridazin-3-yl)azetidine-3-carboxamide], for which the pIC50 was 8.53.

`CC(C)CN1CCC(c2ccc(NC(=O)C3CN(c4cccnc4)C3)cc2)CC1` [Example 94, N-{4-[1-(2-methylpropyl)piperidin-4-yl]phenyl}-1-(pyridin-3-yl)azetidine-3-carboxamide] gave a negative-log IC50 (pIC50) of 7.18.

The compound `CC(C)Cn1cc(-c2ccc(C(=O)N[C@H]3CCN(c4ccc(Cl)nn4)C3)s2)cn1` [Example 621, N-[(3S)-1-(6-chloropyridazin-3-yl)pyrrolidin-3-yl]-5-[1-(2-methylpropyl)-1H-pyrazol-4-yl]thiophene-2-carboxamide] gave a pIC50 below 5.00.

With `CC(C)(C)C(=O)N1CC[C@@H](Oc2ccc(NC(=O)C3CN(c4cccnn4)C3)cc2)C1` [Example 523, N-(4-{[(3R)-1-(2,2-dimethylpropanoyl)pyrrolidin-3-yl]oxy}phenyl)-1-(pyridazin-3-yl)azetidine-3-carboxamide], the pIC50 was 9.00.

Regarding `O=C(Nc1ccc(C2CCN(C(=O)CCC(F)(F)F)CC2)cc1)C1CN(c2cccnc2)C1` [Example 112, 1-(pyridin-3-yl)-N-{4-[1-(4,4,4-trifluorobutanoyl)piperidin-4-yl]phenyl}azetidine-3-carboxamide], the negative logarithm of the IC50 (pIC50) is 9.12.

Compound `CC(C)Cn1cc(-c2ccc(NC(=O)[C@H]3CCN(c4cccnn4)C3)cc2)cn1` [Example 769, (3S)-N-{4-[1-(2-methylpropyl)-1H-pyrazol-4-yl]phenyl}-1-(pyridazin-3-yl)pyrrolidine-3-carboxamide] showed a negative logarithm of the IC50 (pIC50) of 7.73.

(Values after patent US20130303509A1, “NAMPT INHIBITORS” (AbbVie Inc., priority 2012, published 2013).)
